Measurements from patent US20060128729A1, “Novel bicyclic heterocyclic compounds, process for their preparation and compositions containing them” (priority 2004, published 2006).
pIC50: −log10 of the molar value. Counter-ions that a name gives are not always drawn. Like-named read-outs stand apart in the source and are kept apart here.

How the values were obtained:
[1] = tested on: VCAM-1 (vascular cell adhesion molecule-1); assay: VCAM-1 ELISA on cell layers of stimulated human aortic endothelial cells; type: cell-based; conditions: HAECs treated with TNFα (0.05 ng/ml) or glycated human serum albumin (300 μg/ml) for 18-24 h, read-out: IC50 in VCAM-1 enzyme-linked immunosorbent assay
Experimental: (§1) For inflammation assays, human aortic endothelial cells (HAECS) in 96 well plates were washed once with treatment medium (basal medium containing 1% FBS). Cells were treated with an inflammatory agent such as TNFα (0.05 ng/ml) or glycated human serum albumin (US Biologicals) as source of advanced glycation end products (AGEs) (300 μg/ml) for 18-24 h in the presence or absence of specified amount of compound. Cell supernatants were collected and used for the estimation of MCP-1 (monocyte chemoattractant protein 1) or IL-6 (interleukin-6) by ELISA. Cell layers were washed and used for determining the levels of vascular cell adhesion molecule-1 (VCAM-1).
The cells were fixed cells with 100% methanol for 10 min at room temperature. The methanol was removed and the plate was air-dried. 100 ul of 1:1000 diluted primary antibody (polyclonal goat anti-human VCAM-1—R&D Systems #BBA19) was then added and incubated for 2 h at 37 C. The cells were washed with PBS and 100 ul of 1:5000 dilution of secondary antibody (rabbit anti-goat IgG-HRP—Zymed #81-1620) was added and incubated for 1 h at room temperature. Cells were washed and 100 ul of substrate solution (R&D Systems# DY999) was added and incubated for 20 min in the dark at room temp. 50 μl of stop solution (2N sulfuric acid) was added to the wells and absorbency at 450 nm was noted.

[2] = tested on: MCP-1 (monocyte chemoattractant protein 1); assay: MCP-1 ELISA on supernatants of stimulated human aortic endothelial cells; type: cell-based; conditions: HAECs treated with TNFα (0.05 ng/ml) or glycated human serum albumin (300 μg/ml) for 18-24 h, read-out: IC50 in MCP-1 enzyme-linked immunosorbent assay
Experimental: as §1
MCP-1 ELISA was carried out using Quantikine Human MCP-1 kit as described by the manufacturer (R&D Systems, Inc.). Mouse anti-human MCP-1 was used as the capture antibody and HRP (horse radish peroxidase)-conjugated goat anti-human MCP-1 antibody was used as detection antibody. Culture medium was incubated with the capture antibody (in 96-well plate) for 2 h at room temperature. Wells were washed three times with wash buffer (0.05% Tween-20 in PBS) followed by incubation with detection antibody for 2 h at room temperature. Color development was read at […] in a microplate reader.

IL-6 (interleukin-6) = assay: IL-6 ELISA on media of stimulated human aortic endothelial cells; type: cell-based; conditions: Endothelial cell; HAECs treated with TNFα (0.05 ng/ml) or glycated human serum albumin (300 μg/ml) for 18-24 h; read-out: IC50 in IL-6 enzyme-linked immunosorbent assay
Experimental: as §1
IL-6 levels in endothelial cell media were determined using DuaSet IL-6 ELISA kit from R&D Systems (Cat No DY206) as described by the manufacturer. Mouse anti-human IL-6 antibody was used as the capture antibody and biotinylated goat anti-human IL-6 was used as detection antibody. Culture medium was incubated with the capture antibody (in 96-well plate) for 2 h at room temperature. Wells were washed three times with wash buffer (0.05% Tween-20 in PBS) followed by incubation with detection antibody for 2 h at room temperature. The wells were then incubated with streptavidin HRP and color development was read at 450 nm in a microplate reader.

[3] = tested on: human aortic smooth muscle cells; assay: Smooth muscle cell proliferation assay (radiolabeled thymidine incorporation or CellTiter AQ); type: cell-based; conditions: human aortic SMC; for pIC50: 24 h post treatment in serum-containing growth medium, read-out: Activity: concentration giving 50% inhibition of smooth muscle cell proliferation
Experimental: Primary cultures of human aortic smooth muscle cells were obtained from Clonetics. SMC were initially grown in T-75 flasks prior to seeding in 96 well plates. The 96-well plates were seeded with 4000 cells/well. The following day cells were washed with serum free medium and left in serum free media for 24 hours for serum starvation. The next day cells received growth medium containing serum with or without compound. 24 h post treatment cell proliferation was assayed either assessing the incorporation of radiolabeled thymidine to DNA or using a non-radioactive cell proliferation kit from Promega (CellTiter AQ).

Row | pIC50 ([1]; Homo sapiens, Endothelial cell) | pIC50 ([2]; Homo sapiens, Endothelial cell) | pIC50 (IL-6 (interleukin-6)) | melting point [°C] | pIC50 [1] | pIC50 [2] | SMILES | pIC50 [3] | inhibition at 1 µM ([3]; at 1 μM, 24 h post treatment) [%] | inhibition at 5 µM ([3]; at 5 μM, 24 h post treatment) [%]
1 | 4.93 | 5.14 | 5.27 | – | – | – | CCCc1nn(C)c2c(Nc3ccc(OC)c(F)c3)nc(-c3ccc(F)cc3)nc12 [E 1, (3-fluoro-4-methoxy-phenyl)-[5-(4-fluoro-phenyl)-1-methyl-3-propyl-1H-pyrazolo[4,3-d]pyrimidin-7-yl]-amine hydrochloride] | 6.05 | – | –
2 | 4.98 | 4.87 | 5.05 | 253.65 | – | – | CCCc1nn(C)c2c(Nc3ccc(OC)c(Cl)c3)nc(-c3ccc(F)cc3)nc12.Cl [E 2, (3-chloro-4-methoxy-phenyl)-[5-(4-fluoro-phenyl)-1-methyl-3-propyl-1H-pyrazolo[4,3-d]pyrimidin-7-yl]-amine-hydrochloride] | 5.79 | – | –
3 | 4.91 | 5.06 | – | < 260 | – | – | CCCc1nn(C)c2c(Nc3ccc4c(c3)OCO4)nc(-c3ccc(F)cc3)nc12.Cl [E 8, benzo[1,3]dioxol-5-yl-[5-(4-fluoro-phenyl)-1-methyl-3-propyl-1H-pyrazolo[4,3-d]pyrimidin-7-yl]-amine-hydrochloride] | 6.00 | – | –
4 | 4.93 | 5.80 | – | 238 to 242 | – | – | CCCc1nn(C)c2c(Nc3ccc(OC)c(F)c3)nc(-c3cccs3)nc12.Cl [E 10, (3-fluoro-4-methoxy-phenyl)-(1-methyl-3-propyl-5-thiophen-2-yl-1H-pyrazolo[4,3-d]pyrimidin-7-yl) -amine hydrochloride] | – | 96 | –
5 | 5.08 | 5.24 | 5.02 | 238 to 240 | – | – | CCCc1nn(C)c2c(Nc3ccc(OC)c(Cl)c3)nc(-c3ccccc3)nc12.Cl [E 27, (3-chloro-4-methoxy-phenyl)-(1-methyl-5-phenyl-3-propyl-1H-pyrazolo[4,3-d]pyrimidin-7-yl)-amine hydrochloride] | 5.89 | – | –
6 | 5.08 | 5.12 | – | 248 to 250 | – | – | CCCc1nn(C)c2c(Nc3ccc(OC)c(F)c3)nc(-c3ccccc3)nc12.Cl [E 28, (3-fluoro-4-methoxy-phenyl)-(1-methyl-5-phenyl-3-propyl-1H-pyrazolo[4,3-d]pyrimidin-7-yl)-amine hydrochloride] | – | – | 70
7 | 6.21 | 6.47 | – | 258 to 260 | – | – | Cc1nn(C)c2c(Nc3cccc(C(N)=O)c3)nc(-c3ccc(F)cc3)nc12.Cl [E 49, 3-[5-(4-fluoro-phenyl)-1,3-dimethyl-1H-pyrazolo[4,3-d]pyrimidin-7-ylamino]-benzamide hydrochloride] | – | – | –
8 | 5.77 | 6.38 | – | 272 to 274 | – | – | CNC(=O)c1cccc(Nc2nc(-c3ccc(F)cc3)nc3c(C)nn(C)c23)c1.Cl [E 50, 3-[5-(4-fluoro-phenyl)-1,3-dimethyl-1H-pyrazolo[4,3-d]pyrimidin-7-ylamino]-N-methyl-benzamide hydrochloride] | – | – | –
9 | 4.96 | 5.06 | – | – | – | – | CCCc1nn(C)c2c(Nc3ccc4c(c3)OCO4)nc(-c3cccs3)nc12 [E 52, benzo[1,3]dioxol-5-yl-(1-methyl-3-propyl-5-thiophen-2-yl-1H-pyrazolo[4,3-d]pyrimidin-7-yl)-amine hydrochloride] | 6.30 | – | –
10 | 4.85 | 5.42 | – | – | – | – | COc1ccc(Nc2nc(-c3ccc(F)cc3)cc3c2c(C)nn3C)cc1Cl [E 72, (3-chloro-4-methoxy-phenyl)-[6-(4-fluoro-phenyl)-1,3-dimethyl-1H-pyrazolo[4,3-c]pyridin-4-yl]-amine hydrochloride] | 5.89 | – | –
11 | 4.86 | 5.39 | – | – | – | – | COc1ccc(Nc2nc(-c3ccc(F)cc3)cc3c2c(C)nn3C)cc1F [E 73, (3-fluoro-4-methoxy-phenyl)-[6-(4-fluoro-phenyl)-1,3-dimethyl-1H-pyrazolo[4,3-c]pyridin-4-yl]-amine hydrochloride] | 6.05 | – | –
12 | 4.95 | 5.27 | – | – | – | – | COc1ccc(Nc2nc(-c3ccc(F)cc3)nc3c2cnn3-c2ccccc2)cc1F [E 80, (3-fluoro-4-methoxy phenyl)-[6-(4-fluoro-phenyl)-1-phenyl-1H-pyrazolo[3,4-d]-pyrimidin-4yl]amine hydrochloride] | 6.34 | – | –
13 | 5.05 | 5.28 | – | 203.83 | – | – | Cl.Fc1ccc(-c2nc(Nc3ccc(Cl)c(C(F)(F)F)c3)c3cnn(-c4ccccc4)c3n2)cc1 [E 81, (4-chloro-3-trifluoromethyl-phenyl)-[6-(4-fluoro-phenyl)-1-phenyl-1H-pyrazolo[3,4-d]pyrimidin-4-yl]-amine hydrochloride] | 5.41 | – | –
14 | – | – | – | – | 4.90 | 5.05 | CCCc1nn(C)c2c(Nc3ccc(OC)c(F)c3)nc(-c3ccc(F)cc3)nc12 [E 86, (3-fluoro-4-methoxy-phenyl)-[5-(4-fluoro-phenyl)-1-methyl-3-propyl-1H-pyrazolo[4,3-d]pyrimidin-7-yl]-amine] | – | – | –
